ChEMBL document CHEMBL3244053, “Structural modification study of bis(substituted aminoalkylamino)anthraquinones. An evaluation of the relationship of the [2-[(2-hydroxyethyl)amino]ethyl]amino side chain with antineoplastic activity” (1979)
Active and inactive are the calls of the source. The calls are words filed in the database; no cut-off is given here.

Columns and labels:
B16 [1] = experiment: Antineoplastic activity against mouse B16 cells allografted in BDF1 mouse assessed as survival at 2 mg/kg qd for 9 days; format: functional, organism-based; set-up: dose 2 mg/kg
B16 [2] = experiment: Antineoplastic activity against mouse B16 cells allografted in BDF1 mouse at 2 mg/kg qd for 9 days relative to control; format: functional
B16 [3] = experiment: Antineoplastic activity against mouse B16 cells allografted in BDF1 mouse assessed as survival at 1 mg/kg qd for 9 days; format: functional, organism-based; set-up: dose 1 mg/kg
B16 [4] = experiment: Antineoplastic activity against mouse B16 cells allografted in BDF1 mouse at 1 mg/kg qd for 9 days relative to control; format: functional
L1210 [5] = experiment: Antineoplastic activity against mouse L1210 cells allografted in CDF1 mouse assessed as survival at 4 mg/kg qd for 9 days; format: functional, organism-based; set-up: dose 4 mg/kg
L1210 [6] = experiment: Antineoplastic activity against mouse L1210 cells allografted in CDF1 mouse at 4 mg/kg qd for 9 days relative to control; format: functional
L1210 [7] = experiment: Antineoplastic activity against mouse L1210 cells allografted in CDF1 mouse assessed as survival at 2 mg/kg qd for 9 days; format: functional, organism-based; set-up: dose 2 mg/kg
L1210 [8] = experiment: Antineoplastic activity against mouse L1210 cells allografted in CDF1 mouse at 2 mg/kg qd for 9 days relative to control; format: functional
P388 [9] = experiment: Antineoplastic activity against mouse P388 cells allografted in CDF1 mouse assessed as survival at 2 mg/kg qd for 9 days; format: functional, organism-based; set-up: dose 2 mg/kg
P388 [10] = experiment: Antineoplastic activity against mouse P388 cells allografted in CDF1 mouse at 2 mg/kg qd for 9 days relative to control; format: functional
P388 [11] = experiment: Antineoplastic activity against mouse P388 cells allografted in CDF1 mouse assessed as survival at 1 mg/kg qd for 9 days; format: functional, organism-based; set-up: dose 1 mg/kg
P388 [12] = experiment: Antineoplastic activity against mouse P388 cells allografted in CDF1 mouse at 1 mg/kg qd for 9 days relative to control; format: functional
B16 [13] = experiment: Antineoplastic activity against mouse B16 cells allografted in BDF1 mouse assessed as survival at 16 mg/kg qd for 9 days; format: functional, organism-based; set-up: dose 16 mg/kg
B16 [14] = experiment: Antineoplastic activity against mouse B16 cells allografted in BDF1 mouse at 16 mg/kg qd for 9 days relative to control; format: functional
B16 [15] = experiment: Antineoplastic activity against mouse B16 cells allografted in BDF1 mouse assessed as survival at 8 mg/kg qd for 9 days; format: functional, organism-based; set-up: dose 8 mg/kg
B16 [16] = experiment: Antineoplastic activity against mouse B16 cells allografted in BDF1 mouse at 8 mg/kg qd for 9 days relative to control; format: functional
B16 [17] = experiment: Antineoplastic activity against mouse B16 cells allografted in BDF1 mouse assessed as survival at 4 mg/kg qd for 9 days; format: functional, organism-based; set-up: dose 4 mg/kg
B16 [18] = experiment: Antineoplastic activity against mouse B16 cells allografted in BDF1 mouse at 4 mg/kg qd for 9 days relative to control; format: functional
Colon 26 [19] = experiment: Antineoplastic activity against mouse Colon 26 cells allografted in CDF1 mouse assessed as survival at 8 mg/kg qd for 9 days; format: functional, organism-based; set-up: dose 8 mg/kg
Colon 26 [20] = experiment: Antineoplastic activity against mouse Colon 26 cells allografted in CDF1 mouse at 8 mg/kg qd for 9 days relative to control; format: functional
Colon 26 [21] = experiment: Antineoplastic activity against mouse Colon 26 cells allografted in CDF1 mouse assessed as survival at 4 mg/kg qd for 9 days; format: functional, organism-based; set-up: dose 4 mg/kg
Colon 26 [22] = experiment: Antineoplastic activity against mouse Colon 26 cells allografted in CDF1 mouse at 4 mg/kg qd for 9 days relative to control; format: functional
Colon 26 [23] = experiment: Antineoplastic activity against mouse Colon 26 cells allografted in CDF1 mouse assessed as survival at 2 mg/kg qd for 9 days; format: functional, organism-based; set-up: dose 2 mg/kg
Colon 26 [24] = experiment: Antineoplastic activity against mouse Colon 26 cells allografted in CDF1 mouse at 2 mg/kg qd for 9 days relative to control; format: functional
L1210 [25] = experiment: Antineoplastic activity against mouse L1210 cells allografted in CDF1 mouse assessed as survival at 16 mg/kg qd for 9 days; format: functional, organism-based; set-up: dose 16 mg/kg
L1210 [26] = experiment: Antineoplastic activity against mouse L1210 cells allografted in CDF1 mouse at 16 mg/kg qd for 9 days relative to control; format: functional
L1210 [27] = experiment: Antineoplastic activity against mouse L1210 cells allografted in CDF1 mouse assessed as survival at 8 mg/kg qd for 9 days; format: functional, organism-based; set-up: dose 8 mg/kg
L1210 [28] = experiment: Antineoplastic activity against mouse L1210 cells allografted in CDF1 mouse at 8 mg/kg qd for 9 days relative to control; format: functional
P388 [29] = experiment: Antineoplastic activity against mouse P388 cells allografted in CDF1 mouse assessed as survival at 16 mg/kg qd for 9 days; format: functional, organism-based; set-up: dose 16 mg/kg
P388 [30] = experiment: Antineoplastic activity against mouse P388 cells allografted in CDF1 mouse at 16 mg/kg qd for 9 days relative to control; format: functional
P388 [31] = experiment: Antineoplastic activity against mouse P388 cells allografted in CDF1 mouse assessed as survival at 8 mg/kg qd for 9 days; format: functional, organism-based; set-up: dose 8 mg/kg
P388 [32] = experiment: Antineoplastic activity against mouse P388 cells allografted in CDF1 mouse at 8 mg/kg qd for 9 days relative to control; format: functional
P388 [33] = experiment: Antineoplastic activity against mouse P388 cells allografted in CDF1 mouse assessed as survival at 4 mg/kg qd for 9 days; format: functional, organism-based; set-up: dose 4 mg/kg
P388 [34] = experiment: Antineoplastic activity against mouse P388 cells allografted in CDF1 mouse at 4 mg/kg qd for 9 days relative to control; format: functional

O=C1c2ccccc2C(=O)c2c(NCCNCCO)ccc(NCCNCCO)c21 [AMETANTRONE]
Activity (B16 [1]): Active | T/C (B16 [2]): 172% | Activity (B16 [3]): Active | T/C (B16 [4]): 151% | Activity (L1210 [5]): Active | T/C (L1210 [6]): 193% | Activity (L1210 [7]): Active | T/C (L1210 [8]): 180% | Activity (P388 [9]): Active | T/C (P388 [10]): 200% | Activity (P388 [11]): Active | T/C (P388 [12]): 155% | Activity (B16 [13]): Active | T/C (B16 [14]): 225% | Activity (B16 [15]): Active | T/C (B16 [16]): 204% | Activity (B16 [17]): Active | T/C (B16 [18]): 194% | Activity (Colon 26 [19]): Active | T/C (Colon 26 [20]): 201% | Activity (Colon 26 [21]): Active | T/C (Colon 26 [22]): 177% | Activity (Colon 26 [23]): Active | T/C (Colon 26 [24]): 132% | Activity (L1210 [25]): Active | T/C (L1210 [26]): 234% | Activity (L1210 [27]): Active | T/C (L1210 [28]): 288% | Activity (P388 [29]): Active | T/C (P388 [30]): 321% | Activity (P388 [31]): Active | T/C (P388 [32]): 254% | Activity (P388 [33]): Active | T/C (P388 [34]): 219%
